Measurements: patent US12714709B2, “Pharmaceutical compositions comprising 2-[(4S)-8-fluoro-2-[4-(3-methoxyphenyl)piperazin-1-yl]-3-[2-methoxy-5-(trifluoromethyl)phenyl]-4H-quinazolin-4-yl]acetate and sodium ions” (priority 2020, dated 2026)
Where a name gives a salt, the structure may show the parent alone. Read-outs that look alike come from different tables or passages of the source.

Experiments:
[1] = pH of letermovir forms and of letermovir free base with NaOH equivalents in water; format: physicochemical; conditions: for Initial pH / pH after 1 week: no NaOH added
Description: The pH value of the samples was measured with a calibrated pH meter EUTEGH CAKTON PH/Ion 510 Serial n° 172361 with a Polilyte lab electrode. The sample is stirred and the electrode is introduced. A measurement is performed until the pH value is stable. Between measurements the electrode is thoroughly rinsed with water. The pH measurements were performed with an analysis volume of ~1-2 mL and a defined temperature of 22° C.±3° C. A 3-point calibration of the pH meter was performed on a daily basis, by using buffers with pH 7.00, pH 4.01 and pH 10.01 (Hamilton Duracal buffer).
(§1) A first set of letermovir samples was prepared by dissolving letermovir free base, letermovir sodium salt amorphous, letermovir sodium salt trihydrate or letermovir sodium salt monohydrate in water to prepare the solutions with the concentration of 20 mg/mL and 100 mg/mL with respect to letermovir free base in order to determine the differences in the pH immediately after dissolution and after 1 week and to check precipitation effects and solubility.
A second set of samples was prepared by adding different equivalents of sodium hydroxide (0.84, 0.86, 0.88 and 0.9 eq.) to letermovir free base solutions. Blank solutions with the same amounts of water and sodium hydroxide equivalents and without letermovir were also prepared for comparative reasons.
(§2) Procedure: The corresponding amount of water was added to each sample with further addition of the respective equivalents of 1 M aqueous NaOH to the samples of second set (Table 4, Table 5 and Table 6). No addition of NaOH was applied to the first set of samples.
(§3) The suspensions were stirred at room temperature and the pH was determined immediately after the preparation and after 1 week. The solubility and precipitation effects were also checked (Table 7, Table 8 and Table 9). […]

[2] = Solubility/precipitation in water, visual inspection; format: physicochemical; conditions: for precipitation effects / dissolution over time, visual inspection: in water without sodium hydroxide, 20 and 100 mg/mL, over 1 week
Description: as §1, with “solubility. […]” for “solubility.”
as §2, §3

[3] = 20 mg/ml with respect to free base in water
[4] = 100 mg/ml with respect to free base in water
[5] = 20 mg/ml with respect to free base in water, Trihydrate
[6] = 100 mg/ml with respect to free base in water, Trihydrate
[7] = 20 mg/ml with respect to free base in water, Monohydrate
[8] = 100 mg/ml with respect to free base in water, Monohydrate

COc1cccc(N2CCN(C3=Nc4c(F)cccc4[C@H](CC(=O)O)N3c3cc(C(F)(F)F)ccc3OC)CC2)c1 [Free Base, 2-[(4S)-8-fluoro-2-[4-(3-methoxyphenyl)-piperazin-1-yl]-3-[2-methoxy-5-(trifluoromethyl)phenyl]-4H-quinazolin-4-yl]acetic acid]
Initial pH [1, 3]: 6.1 | pH after 1 week [1, 3]: 6.1 | Initial pH [1, 4]: 6.3 | pH after 1 week [1, 4]: 6.2 | pH values of the solutions/suspension in water ([1]; in water without sodium hydroxide, 20 and 100 mg/mL, initial and after 1 week, listed as letermovir free base): around 6 | Solubility/Precipitation ([2]; 20 mg/ml with respect to free base in water, no NaOH added): Insoluble | Solubility/Precipitation ([2]; 100 mg/ml with respect to free base in water, no NaOH added): Insoluble | precipitation effects / dissolution over time, visual inspection ([2]; listed as letermovir free base): did not dissolve

COc1cccc(N2CCN(C3=Nc4c(F)cccc4[C@H](CC(=O)[O-])N3c3cc(C(F)(F)F)ccc3OC)CC2)c1.[Na+] [Sodium Salt Amorphous]
Initial pH [1, 3]: 9.2 | pH after 1 week [1, 3]: 9.0 | Initial pH [1, 4]: 9.3 | pH after 1 week [1, 4]: 9.1 | Solubility/Precipitation [2]: Clear solution | precipitation effects / dissolution over time, visual inspection [2]: completely clear without precipitation effects

COc1cccc(N2CCN(C3=Nc4c(F)cccc4[C@H](CC(=O)O)N3c3cc(C(F)(F)F)ccc3OC)CC2)c1 [Sodium Salt Trihydrate]
Initial pH [1, 5]: 9.5 | pH after 1 week [1, 5]: 9.2 | Initial pH [1, 6]: 9.5 | pH after 1 week [1, 6]: 9.2 | Solubility/Precipitation ([2]; 20 mg/ml with respect to free base in water, no NaOH added, Trihydrate): Clear solution | Solubility/Precipitation ([2]; 100 mg/ml with respect to free base in water, no NaOH added, Trihydrate): Clear solution | precipitation effects / dissolution over time, visual inspection ([2]; listed as letermovir sodium dalt trihydrate, Trihydrate): completely clear without precipitation effects

COc1cccc(N2CCN(C3=Nc4c(F)cccc4[C@H](CC(=O)O)N3c3cc(C(F)(F)F)ccc3OC)CC2)c1 [Sodium Salt Monohydrate]
Initial pH [1, 7]: 9.2 | pH after 1 week [1, 7]: 8.9 | Initial pH [1, 8]: 9.2 | pH after 1 week [1, 8]: 9.0 | Solubility/Precipitation ([2]; 20 mg/ml with respect to free base in water, no NaOH added, Monohydrate): Clear solution | Solubility/Precipitation ([2]; 100 mg/ml with respect to free base in water, no NaOH added, Monohydrate): Clear solution | precipitation effects / dissolution over time, visual inspection ([2]; listed as letermovir sodium salt monohydrate, Monohydrate): completely clear without precipitation effects
